Assay results from patent US20260130901A1, “CGRP RECEPTOR ANTAGONIST FOR THE TREATMENT OF MIGRAINE” (ALLERGAN PHARMACEUTICALS INTERNATIONAL LIMITED, priority 2022, published 2026).

Columns and labels:
[1] = test system: participants with migraine (qualifying prodrome events); experiment: Phase 3 crossover study: satisfaction with study medication; type: in vivo, human; settings: 100 mg in prodrome
Procedure: (§1) A phase 3, multicenter, randomized, double-blind, placebo-controlled, crossover study was carried out to evaluate the efficacy, safety, and tolerability of oral ubrogepant in the acute treatment of migraine when administered during the prodrome. The study evaluated whether treatment during the initial phase of a migraine attack (i.e., the prodrome or premonitory phase) prior to the onset of headache, can attenuate the severity of the headache phase and reduce disability.
(§2) Eligible participants were randomized (1:1) to treatment sequences A or B in this crossover study. Participants randomized to Treatment Sequence A received placebo to treat their first qualifying prodrome event and ubrogepant 100 mg to treat their second qualifying prodrome event. For those randomized to Treatment Sequence B, they received the reverse: ubrogepant 100 mg to treat their first qualifying prodrome event and placebo to treat their second qualifying prodrome event.

[2] = test system: participants with migraine (qualifying prodrome events); experiment: Phase 3 crossover study: absence of prodrome symptoms over time; type: in vivo, human; settings: 100 mg in prodrome; for Absence of dizziness, Nonresponder (%) / Absence of dizziness, Odds ratio vs. placebo / Absence of dizziness, Responder (%) / Absence of fatigue, Nonresponder (%) / Absence of fatigue, Odds ratio vs. placebo / Absence of fatigue, Responder (%) / Absence of neck pain, Nonresponder (%) / Absence of neck pain, Odds ratio vs. placebo / Absence of neck pain, Responder (%) / Absence of sensitivity to light, Nonresponder (%) / Absence of sensitivity to light, Odds ratio vs. placebo / Absence of sensitivity to light, Responder (%) / Absence of sensitivity to sound, Nonresponder (%) / Absence of sensitivity to sound, Odds ratio vs. placebo / Absence of sensitivity to sound, Responder (%): participants with symptom at predose
Procedure: as §1, §2
N1 is the number of participants with the prodrome symptom at predose. N2 is the number of participants with non-missing prodrome symptom intensity assessment by timepoint after dose. The proportion of events with absence of sensitivity to light after ubrogepant 100 mg was numerically greater than after placebo, starting at 2 hours post-dose and extending through 48 hours (nominal P≤0.0109 for hours 2-8).
N1 is the number of participants with the prodrome symptom at predose. N2 is the number of participants with non-missing prodrome symptom intensity assessment by timepoint after dose. The difference in response rates was nominally significant for the ubrogepant 100 mg dose group compared with placebo as early as 3 hours post-dose administered during the prodrome.
N1 is the number of participants with the prodrome symptom at predose. N2 is the number of participants with non-missing prodrome symptom intensity assessment by timepoint after dose.

For `C[C@@H]1[C@H](c2ccccc2)C[C@H](NC(=O)c2cnc3c(c2)C[C@@]2(C3)C(=O)Nc3ncccc32)C(=O)N1CC(F)(F)F` [Ubrogepant, (3′S)—N-((3S,5S,6R)-6-methyl-2-oxo-5-phenyl-1-(2,2,2-trifluoroethyl)piperidin-3-yl)-2′-oxo-1′,2′,5,7-tetrahydrospiro[cyclopenta[b]pyridine-6,3′-pyrrolo[2,3-b]pyridine]-3-carboxamide], the “Satisfaction with study medication, Odds ratio vs placebo” value ([1]; 8 Hours post-dose) was 2.37, the “Satisfaction with study medication, responder rate (%) (satisfied or extremely satisfied)” value ([1]; 8 Hours post-dose) was “(66.0) %” and the “Satisfaction with study medication, Odds ratio vs placebo” value ([1]; 24 Hours post-dose) was 2.32. The “Satisfaction with study medication, responder rate (%) (satisfied or extremely satisfied)” value ([1]; 24 Hours post-dose) was “(65.6) %”, the “Satisfaction with study medication, responder rate (%) (satisfied or extremely satisfied)” value ([1]; 24 Hours post-dose, listed as ubrogepant) was 65.6% and the “Response rates vs placebo, absence of dizziness” value [2] was “Numerically higher response rates”. For the same compound, the “Response rates vs placebo, absence of sensitivity to sound” value [2] was “Numerically higher response rates”, the “Absence of dizziness, Nonresponder (%)” value ([2]; 1 Hour post dose) was “(90.0) %” and the “Absence of dizziness, Odds ratio vs. placebo” value ([2]; 1 Hour post dose) was 0.96. For the same compound, the “Absence of dizziness, Responder (%)” value ([2]; 1 Hour post dose) was “(10.0) %”, the “Absence of fatigue, Nonresponder (%)” value ([2]; 1 Hour post dose) was “(95.1) %” and the “Absence of fatigue, Odds ratio vs. placebo” value ([2]; 1 Hour post dose) was 1.23. For the same compound, the “Absence of fatigue, Responder (%)” value ([2]; 1 Hour post dose) was “(4.9) %”, the “Absence of neck pain, Nonresponder (%)” value ([2]; 1 Hour post dose) was “(95.8) %” and the “Absence of neck pain, Odds ratio vs. placebo” value ([2]; 1 Hour post dose) was 1.43. For the same compound, the “Absence of neck pain, Responder (%)” value ([2]; 1 Hour post dose) was “(4.2) %”, the “Absence of sensitivity to light, Nonresponder (%)” value ([2]; 1 Hour post dose) was “(95.2) %” and the “Absence of sensitivity to light, Odds ratio vs. placebo” value ([2]; 1 Hour post dose) was 1.08. The “Absence of sensitivity to light, Responder (%)” value ([2]; 1 Hour post dose) was “(4.8) %”, the “Absence of sensitivity to sound, Nonresponder (%)” value ([2]; 1 Hour post dose) was “(92.0) %” and the “Absence of sensitivity to sound, Odds ratio vs. placebo” value ([2]; 1 Hour post dose) was 1.23. The “Absence of sensitivity to sound, Responder (%)” value ([2]; 1 Hour post dose) was “(8.0) %”, the “Absence of dizziness, Nonresponder (%)” value ([2]; 2 Hours post dose) was “(70.7) %” and the “Absence of dizziness, Odds ratio vs. placebo” value ([2]; 2 Hours post dose) was 1.17. The “Absence of dizziness, Responder (%)” value ([2]; 2 Hours post dose) was “(29.3) %”, the “Absence of fatigue, Nonresponder (%)” value ([2]; 2 Hours post dose) was “(81.6) %” and the “Absence of fatigue, Odds ratio vs. placebo” value ([2]; 2 Hours post dose) was 1.43. For the same compound, the “Absence of fatigue, Responder (%)” value ([2]; 2 Hours post dose) was “(18.4) %”, the “Absence of neck pain, Nonresponder (%)” value ([2]; 2 Hours post dose) was “(84.6) %” and the “Absence of neck pain, Odds ratio vs. placebo” value ([2]; 2 Hours post dose) was 1.39. For the same compound, the “Absence of neck pain, Responder (%)” value ([2]; 2 Hours post dose) was “(15.4) %”, the “Absence of sensitivity to light, Nonresponder (%)” value ([2]; 2 Hours post dose) was “(80.5) %” and the “Absence of sensitivity to light, Odds ratio vs. placebo” value ([2]; 2 Hours post dose) was 1.72. The “Absence of sensitivity to light, Responder (%)” value ([2]; 2 Hours post dose) was “(19.5) %”, the “Absence of sensitivity to sound, Nonresponder (%)” value ([2]; 2 Hours post dose) was “(74.7) %” and the “Absence of sensitivity to sound, Odds ratio vs. placebo” value ([2]; 2 Hours post dose) was 1.59. The “Absence of sensitivity to sound, Responder (%)” value ([2]; 2 Hours post dose) was “(25.3) %”, the “Absence of dizziness, Nonresponder (%)” value ([2]; 3 Hours post dose) was “(60.7) %” and the “Absence of dizziness, Odds ratio vs. placebo” value ([2]; 3 Hours post dose) was 1.60. The “Absence of dizziness, Responder (%)” value ([2]; 3 Hours post dose) was “(39.3) %”, the “Absence of fatigue, Nonresponder (%)” value ([2]; 3 Hours post dose) was “(72.7) %” and the “Absence of fatigue, Odds ratio vs. placebo” value ([2]; 3 Hours post dose) was 1.85. For the same compound, the “Absence of fatigue, Responder (%)” value ([2]; 3 Hours post dose) was “(27.3) %”, the “Absence of neck pain, Nonresponder (%)” value ([2]; 3 Hours post dose) was “(71.1) %” and the “Absence of neck pain, Odds ratio vs. placebo” value ([2]; 3 Hours post dose) was 2.04. The “Absence of neck pain, Responder (%)” value ([2]; 3 Hours post dose) was “(28.9) %”, the “Absence of sensitivity to light, Nonresponder (%)” value ([2]; 3 Hours post dose) was “(67.6) %” and the “Absence of sensitivity to light, Odds ratio vs. placebo” value ([2]; 3 Hours post dose) was 1.58. For the same compound, the “Absence of sensitivity to light, Responder (%)” value ([2]; 3 Hours post dose) was “(32.4) %”, the “Absence of sensitivity to sound, Nonresponder (%)” value ([2]; 3 Hours post dose) was “(64.4) %” and the “Absence of sensitivity to sound, Odds ratio vs. placebo” value ([2]; 3 Hours post dose) was 1.45. The “Absence of sensitivity to sound, Responder (%)” value ([2]; 3 Hours post dose) was “(35.6) %”, the “Absence of dizziness, Nonresponder (%)” value ([2]; 4 Hours post dose) was “(50.0%” and the “Absence of dizziness, Odds ratio vs. placebo” value ([2]; 4 Hours post dose) was 1.37. For the same compound, the “Absence of dizziness, Responder (%)” value ([2]; 4 Hours post dose) was “(50.0) %”, the “Absence of fatigue, Nonresponder (%)” value ([2]; 4 Hours post dose) was “(65.2) %” and the “Absence of fatigue, Odds ratio vs. placebo” value ([2]; 4 Hours post dose) was 1.93. For the same compound, the “Absence of fatigue, Responder (%)” value ([2]; 4 Hours post dose) was “(34.8) %”, the “Absence of neck pain, Nonresponder (%)” value ([2]; 4 Hours post dose) was “(61.3) %” and the “Absence of neck pain, Odds ratio vs. placebo” value ([2]; 4 Hours post dose) was 2.27. For the same compound, the “Absence of neck pain, Responder (%)” value ([2]; 4 Hours post dose) was “(38.7) %”, the “Absence of sensitivity to light, Nonresponder (%)” value ([2]; 4 Hours post dose) was “(55.2) %” and the “Absence of sensitivity to light, Odds ratio vs. placebo” value ([2]; 4 Hours post dose) was 1.46. The “Absence of sensitivity to light, Responder (%)” value ([2]; 4 Hours post dose) was “(44.8) %” and the “Absence of sensitivity to sound, Nonresponder (%)” value ([2]; 4 Hours post dose) was “(49.3) %”.
